Test results from patent publication US11739074B2, “Ras inhibitors” (Revolution Medicines, Inc., priority 2019, dated 2023).
Like-named read-outs stand apart in the source and are kept apart here.

What was measured:
[1] = biological target: KRAS G12D (Homo sapiens, UniProt P01116+P62937, G12D); assay: Ras-Raf disruption/FRET/MOA assay, KRAS G12D; assay type: biochemical
Procedure, shortened: (§1)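 His6-KRAS-GMPPNP (12.5 nM) was combined with tagless Cyclophilin A (25 μM) and GST-BRAF^RBD (50 nM) in pH 7.3 HEPES buffer with NaCl, MgCl2, Tween20 and BSA. Compound was tested as a 10-point 3-fold series from 30 μM final, 3 h at 25° C. Disruption was read as a drop in TR-FRET ratio versus DMSO.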

[2] = biological target: KRAS Q61H (Homo sapiens, UniProt P01116+P62937, Q61H); assay: Ras-Raf disruption/FRET/MOA assay, KRAS Q61H; assay type: biochemical
KRAS Q61H, sequence (P01116 1-169 isoform P01116-2 Q61H limits assumed): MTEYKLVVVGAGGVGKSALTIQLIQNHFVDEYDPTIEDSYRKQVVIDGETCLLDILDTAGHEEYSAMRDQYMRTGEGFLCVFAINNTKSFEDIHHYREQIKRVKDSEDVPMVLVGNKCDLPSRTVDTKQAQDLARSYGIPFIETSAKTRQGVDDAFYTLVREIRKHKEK
KRAS Q61H, sequence (P62937 whole entry, the tested form may be a part): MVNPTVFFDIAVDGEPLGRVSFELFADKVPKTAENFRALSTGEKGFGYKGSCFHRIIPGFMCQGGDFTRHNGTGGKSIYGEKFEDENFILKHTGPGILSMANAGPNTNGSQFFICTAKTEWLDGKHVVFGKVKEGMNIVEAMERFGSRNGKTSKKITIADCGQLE
Text: (§2) Disruption of B-Raf Ras-Binding Domain (BRAF^RBD) Interaction with K-Ras by Compounds of the Invention (Also Called a FRET Assay or an MOA Assay)
(§3) Note—The following protocol describes a procedure for monitoring disruption of K-Ras G12C (GMP-PNP) binding to BRAF^RBD by a compound of the invention. This protocol may also be executed substituting other Ras proteins or nucleotides, such as K-Ras G12D and K-Ras G13D.
(§4) The purpose of this biochemical assay was to measure the ability of test compounds to facilitate ternary complex formation between a nucleotide-loaded K-Ras isoform and Cyclophilin A; the resulting ternary complex disrupts binding to a BRAF^RBD construct, inhibiting K-Ras signaling through a RAF effector.
(§5) In assay buffer containing 25 mM HEPES pH 7.3, 0.002% Tween20, 0.1% BSA, 100 mM NaCl and 5 mM MgCl2, tagless Cyclophilin A, His6-K-Ras-GMPPNP, and GST-BRAF^RBD were combined in a 384-well assay plate at final concentrations of 25 μM, 12.5 nM, and 50 nM, respectively. Compound was present in plate wells as a 10-point 3-fold dilution series starting at a final concentration of 30 μM. After incubation at 25° C. for 3 hours, a mixture of anti-His Eu-W1024 and anti-GST allophycocyanin was then added to assay sample wells at final concentrations of 10 nM and 50 nM, respectively, and the reaction incubated for an additional 1.5 hours. […] Compounds that facilitate disruption of a K-Ras:RAF complex were identified as those eliciting a decrease in the TR-FRET ratio relative to DMSO control wells.

[3] = test system: AsPC-1 (K-Ras G12D); assay: Potency assay: pERK in AsPC-1 cells; assay type: cell-based; settings: Homo sapiens
[4] = test system: NCI-H358 (K-Ras G12C); assay: CellTiter-Glo cell viability assay, H358; assay type: cell-based; settings: Homo sapiens, NCI-H358, 120 h
Procedure, shortened: (§6)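 Luminescence from CellTiter-Glo serves as the viability read-out after cells are treated with compound for 5 days. Each well's signal is divided by the DMSO average and multiplied by 100, and curves are fitted by four-parameter logistic regression.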

[5] = test system: AsPC-1 (K-Ras G12D); assay: CellTiter-Glo cell viability assay, AsPC-1; assay type: cell-based; settings: Homo sapiens, ASPC1, 120 h
Procedure, shortened: as §6

[6] = biological target: KRAS WT (Homo sapiens, UniProt P01116+P62937); assay: Ras-Raf disruption/FRET/MOA assay, KRAS WT; assay type: biochemical
KRAS WT, sequence (P01116 1-169 isoform P01116-2 limits assumed): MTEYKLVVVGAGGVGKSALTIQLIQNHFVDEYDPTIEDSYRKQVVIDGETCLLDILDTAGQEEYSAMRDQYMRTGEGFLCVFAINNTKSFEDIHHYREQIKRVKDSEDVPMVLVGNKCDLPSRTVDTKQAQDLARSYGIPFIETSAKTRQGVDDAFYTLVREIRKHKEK
KRAS WT, sequence (P62937 whole entry): as the sequence (P62937 whole entry, the tested form may be a part) above
Procedure, shortened: as §1

[7] = biological target: KRAS G13D (Homo sapiens, UniProt P01116+P62937, G13D); assay: Ras-Raf disruption/FRET/MOA assay, KRAS G13D; assay type: biochemical
KRAS G13D, sequence (P01116 1-169 isoform P01116-2 G13D limits assumed): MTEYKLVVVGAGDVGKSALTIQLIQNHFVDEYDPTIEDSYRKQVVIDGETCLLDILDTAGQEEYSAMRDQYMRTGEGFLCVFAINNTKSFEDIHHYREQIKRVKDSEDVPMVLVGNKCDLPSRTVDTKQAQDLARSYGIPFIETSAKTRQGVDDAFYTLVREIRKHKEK
KRAS G13D, sequence (P62937 whole entry): as the sequence (P62937 whole entry, the tested form may be a part) above
Procedure, shortened: as §1

[8] = biological target: T1, NRAS Q61K (Homo sapiens, UniProt P01111+P62937, Q61K); assay: Ras-Raf disruption/FRET/MOA assay, NRAS Q61K; assay type: biochemical
T1 construct: His6
T1 sequence (P01111 whole entry Q61K): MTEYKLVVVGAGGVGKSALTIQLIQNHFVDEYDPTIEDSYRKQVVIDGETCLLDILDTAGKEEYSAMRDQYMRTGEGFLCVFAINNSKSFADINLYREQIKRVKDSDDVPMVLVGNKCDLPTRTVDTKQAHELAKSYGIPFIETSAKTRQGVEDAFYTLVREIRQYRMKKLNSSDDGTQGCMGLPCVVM
T1 sequence (P62937 whole entry): as the sequence (P62937 whole entry, the tested form may be a part) above
Text: as §2, §3, §4, §5

[9] = biological target: KRAS G13C (Homo sapiens, UniProt P01116+P62937, G13C); assay: Ras-Raf disruption/FRET/MOA assay, KRAS G13C; assay type: biochemical
KRAS G13C, sequence (P01116 1-169 isoform P01116-2 G13C limits assumed): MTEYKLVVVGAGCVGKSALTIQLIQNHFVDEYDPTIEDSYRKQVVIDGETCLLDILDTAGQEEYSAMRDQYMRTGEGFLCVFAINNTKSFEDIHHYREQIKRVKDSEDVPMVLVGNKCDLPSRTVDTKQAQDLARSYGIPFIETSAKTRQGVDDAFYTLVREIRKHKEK
KRAS G13C, sequence (P62937 whole entry): as the sequence (P62937 whole entry, the tested form may be a part) above
Procedure, shortened: as §1

[10] = biological target: KRAS G12C (Homo sapiens, UniProt P01116+P62937, G12C); assay: Ras-Raf disruption/FRET/MOA assay, KRAS G12C; assay type: biochemical
KRAS G12C, sequence (P01116 1-169 isoform P01116-2 G12C limits assumed): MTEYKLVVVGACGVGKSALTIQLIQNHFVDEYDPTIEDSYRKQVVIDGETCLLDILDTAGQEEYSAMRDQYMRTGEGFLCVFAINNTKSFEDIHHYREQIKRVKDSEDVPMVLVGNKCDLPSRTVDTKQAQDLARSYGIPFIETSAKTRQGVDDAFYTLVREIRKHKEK
KRAS G12C, sequence (P62937 whole entry): as the sequence (P62937 whole entry, the tested form may be a part) above
Procedure, shortened: as §1

[11] = biological target: KRAS G12V (Homo sapiens, UniProt P01116+P62937, G12V); assay: Ras-Raf disruption/FRET/MOA assay, KRAS G12V; assay type: biochemical
KRAS G12V, sequence (P01116 1-169 isoform P01116-2 G12V limits assumed): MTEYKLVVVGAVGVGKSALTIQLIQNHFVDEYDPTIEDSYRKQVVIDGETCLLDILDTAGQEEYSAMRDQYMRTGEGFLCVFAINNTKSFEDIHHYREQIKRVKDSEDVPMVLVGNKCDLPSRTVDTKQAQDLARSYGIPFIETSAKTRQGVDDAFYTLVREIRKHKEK
KRAS G12V, sequence (P62937 whole entry): as the sequence (P62937 whole entry, the tested form may be a part) above
Procedure, shortened: as §1

[12] = biological target: T2, NRAS Q61R (Homo sapiens, UniProt P01111+P62937, Q61R); assay: Ras-Raf disruption/FRET/MOA assay, NRAS Q61R; assay type: biochemical
T2 construct: His6
T2 sequence (P01111 whole entry Q61R): as the sequence (P01111 whole entry Q61K) above, with K61R counted along it
T2 sequence (P62937 whole entry): as the sequence (P62937 whole entry, the tested form may be a part) above
Text: as §2, §3, §4, §5

[13] = biological target: KRAS G12S (Homo sapiens, UniProt P01116+P62937, G12S); assay: Ras-Raf disruption/FRET/MOA assay, KRAS G12S; assay type: biochemical
KRAS G12S, sequence (P01116 1-169 isoform P01116-2 G12S limits assumed): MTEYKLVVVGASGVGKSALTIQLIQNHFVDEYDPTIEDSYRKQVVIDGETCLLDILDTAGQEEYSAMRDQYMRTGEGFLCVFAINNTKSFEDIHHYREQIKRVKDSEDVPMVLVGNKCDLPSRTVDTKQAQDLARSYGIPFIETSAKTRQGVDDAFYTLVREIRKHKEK
KRAS G12S, sequence (P62937 whole entry): as the sequence (P62937 whole entry, the tested form may be a part) above
Procedure, shortened: as §1

[14] = biological target: T3, NRAS WT (Homo sapiens, UniProt P01111+P62937); assay: Ras-Raf disruption/FRET/MOA assay, NRAS WT; assay type: biochemical
T3 construct: His6
T3 sequence (P01111 whole entry): as the sequence (P01111 whole entry Q61K) above, with K61Q counted along it
T3 sequence (P62937 whole entry): as the sequence (P62937 whole entry, the tested form may be a part) above
Text: as §2, §3, §4, §5

[15] = biological target: T4, NRAS G12C (Homo sapiens, UniProt P01111+P62937, G12C); assay: Ras-Raf disruption/FRET/MOA assay, NRAS G12C; assay type: biochemical
T4 construct: His6
T4 sequence (P01111 whole entry G12C): as the sequence (P01111 whole entry Q61K) above, with G12C, K61Q counted along it
T4 sequence (P62937 whole entry): as the sequence (P62937 whole entry, the tested form may be a part) above
Procedure, shortened: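 Disruption of Ras:RAF binding was read as a drop in TR-FRET ratio versus DMSO controls. The buffer was 25 mM HEPES pH 7.3, 0.002% Tween20, 0.1% BSA, 100 mM NaCl and 5 mM MgCl2. Compounds were tested as a 10-point 3-fold dilution series from 30 μM. Detection used 10 nM anti-His Eu-W1024 and 50 nM anti-GST allophycocyanin.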

[16] = disruption of BRAF RBD binding, with Cyclophilin A, read-out: KRAS G12D FRET IC50
[17] = KRAS Q61H, read-out: KRAS Q61H FRET data IC50
[18] = NCI-H358, K-Ras G12C, 5-day treatment, read-out: H358 Cell Viability IC50
[19] = AsPC-1, K-Ras G12D, 5-day treatment, read-out: AsPC-1 Cell Viability IC50
[20] = disruption of BRAF RBD binding, with Cyclophilin A, read-out: KRAS WT FRET IC50
[21] = disruption of BRAF RBD binding, with Cyclophilin A, read-out: KRAS G13D FRET IC50
[22] = NRAS Q61K, read-out: NRAS Q61K FRET data IC50
[23] = disruption of BRAF RBD binding, with Cyclophilin A, read-out: KRAS G13C FRET IC50
[24] = disruption of BRAF RBD binding, with Cyclophilin A, read-out: KRAS G12C FRET IC50
[25] = disruption of BRAF RBD binding, with Cyclophilin A, read-out: KRAS G12V FRET IC50
[26] = NRAS Q61R, read-out: NRAS Q61R FRET data IC50
[27] = disruption of BRAF RBD binding, with Cyclophilin A, read-out: KRAS G12S FRET IC50
[28] = NRAS WT, read-out: NRAS WT FRET data IC50
[29] = NRAS G12C, read-out: NRAS G12C FRET data IC50

KRAS G12D, sequence (P01116 1-169 isoform P01116-2 G12D limits assumed): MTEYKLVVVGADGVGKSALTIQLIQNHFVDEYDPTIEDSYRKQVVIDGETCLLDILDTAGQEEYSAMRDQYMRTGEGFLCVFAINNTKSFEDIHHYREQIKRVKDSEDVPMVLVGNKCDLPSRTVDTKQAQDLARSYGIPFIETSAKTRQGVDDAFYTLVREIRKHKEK
KRAS G12D, sequence (P62937 whole entry): as the sequence (P62937 whole entry, the tested form may be a part) above

## CCC(C)N(C)C(=O)c1cncc(-c2c3c4cc(ccc4n2CC)-c2cc(O)cc(c2)C[C@H](NC(=O)[C@H](C(C)C)N(C)C(=O)CN(C)C(=O)[C@H]2CN2)C(=O)N2CCC[C@H](N2)C(=O)OCC(C)(C)C3)c1 (stereo partly shown) [Compound 144]
[1]
  IC50: 100 to 1000 nM
[2]
  IC50: 10 to 100 nM
[3]; ASPC1, read-out: pERK EC50 (AsPC-1 KRAS G12D)
  EC50: < 5 µM
[4]; read-out: H358 Cell Viability IC50, NCI-H358, K-Ras G12C, 5-day treatment
  IC50: 10 to 100 nM
[5]; read-out: AsPC-1 Cell Viability IC50, AsPC-1, K-Ras G12D, 5-day treatment
  IC50: 100 to 1000 nM
[6]
  IC50: 100 to 1000 nM
[7]
  IC50: 100 to 1000 nM
[8]
  IC50: 1000 to 10000 nM
[9]
  IC50: 10 to 100 nM
[10]
  IC50: 10 to 100 nM
[11]
  IC50: 100 to 1000 nM
[12]
  IC50: 1000 to 10000 nM
[13]
  IC50: 100 to 1000 nM
[14]
  IC50: 100 to 1000 nM
[15]; NRAS G12C FRET data IC50, NRAS G12C
  IC50: 10 to 100 nM

## CCn1c(-c2cccnc2[C@H](C)OC)c2c3cc(ccc31)-c1cc(O)cc(c1)C[C@H](NC(=O)[C@H](C(C)C)N1CCCC3(CN(C(=O)[C@H]4CN4)C3)C1=O)C(=O)N1CCC[C@H](N1)C(=O)OCC(C)(C)C2 [Compound 307]
[1]; [16]
  IC50: 100 to 1000 nM
[2]; [17]
  IC50: 10 to 100 nM
[3]; ASPC1, AsPC-1 cells, K-Ras G12D, read-out: pERK EC50 (AsPC-1 KRAS G12D)
  EC50: < 5 µM
[4]; [18]
  IC50: < 10 nM
[5]; [19]
  IC50: 100 to 1000 nM
[6]; [20]
  IC50: 10 to 100 nM
[7]; [21]
  IC50: 10 to 100 nM
[8]; [22]
  IC50: 100 to 1000 nM
[9]; [23]
  IC50: 10 to 100 nM
[10]; [24]
  IC50: < 10 nM
[11]; [25]
  IC50: 10 to 100 nM
[12]; [26]
  IC50: 100 to 1000 nM
[13]; [27]
  IC50: 10 to 100 nM
[14]; [28]
  IC50: 10 to 100 nM
[15]; [29]
  IC50: < 10 nM

## CCn1c(-c2cccnc2[C@H](C)OC)c2c3cc(ccc31)-c1cc(cc(C(F)F)c1)C[C@H](NC(=O)[C@H](C1CCCC1)N1CC[C@]3(CCN(C(=O)[C@@H]4N[C@@H]4C4CC4)C3)C1=O)C(=O)N1CCC[C@H](N1)C(=O)OCC(C)(C)C2 [Compound 318]
[1]; [16]
  IC50: 1000 to 10000 nM
[2]; [17]
  IC50: 100 to 1000 nM
[4]; [18]
  IC50: 100 to 1000 nM
[5]; [19]
  IC50: 100 to 1000 nM
[6]; [20]
  IC50: 100 to 1000 nM
[7]; [21]
  IC50: 1000 to 10000 nM
[8]; [22]
  IC50: 1000 to 10000 nM
[9]; [23]
  IC50: 100 to 1000 nM
[10]; [24]
  IC50: 100 to 1000 nM
[11]; [25]
  IC50: 1000 to 10000 nM
[12]; [26]
  IC50: 1000 to 10000 nM
[13]; [27]
  IC50: 1000 to 10000 nM
[14]; [28]
  IC50: 1000 to 10000 nM
[15]; [29]
  IC50: 1000 to 10000 nM

## CCn1c(-c2cccnc2[C@H](C)OC)c2c3cc(ccc31)-c1csc(n1)C[C@H](NC(=O)[C@H](C1CCCC1)N1CC[C@]3(CCN(C(=O)[C@@H]4N[C@@H]4C4CC4)C3)C1=O)C(=O)N1CCC[C@H](N1)C(=O)OCC(C)(C)C2 [Compound 234]
[1]; [16]
  IC50: 1000 to 10000 nM
[2]; [17]
  IC50: 1000 to 10000 nM
[4]; [18]
  IC50: 10 to 100 nM
[5]; [19]
  IC50: 100 to 1000 nM
[6]; [20]
  IC50: 1000 to 10000 nM
[7]; [21]
  IC50: > 10000 nM
[8]; [22]
  IC50: 1000 to 10000 nM
[9]; [23]
  IC50: 1000 to 10000 nM
[10]; [24]
  IC50: 100 to 1000 nM
[11]; [25]
  IC50: 1000 to 10000 nM
[12]; [26]
  IC50: 1000 to 10000 nM
[13]; [27]
  IC50: 1000 to 10000 nM
[14]; [28]
  IC50: 1000 to 10000 nM
[15]; [29]
  IC50: 1000 to 10000 nM
